Patent US20090324700A1, “METHODS AND COMPOSITIONS FOR THE INHIBITION OF CATHEPSINS” (priority 2003, published 2009)
Residues, ends and D or L forms follow the SMILES beside them. *: point of attachment. Cbz = O=C(OCc1ccccc1)*; CH2F = FC*

Tests used:
[1] = system: NIH3T3 cells; experiment: TNF-α death assays, NIH3T3 cells; format: cell-based; conditions: Z-VAD.fmk 50 μM, TNF-α 10 ng/ml, 16 h; FIG. 9A
Experimental: (§1) TNF-α death assays. NIH3T3 cells were transduced with MIGR1 retrovirus (Zhang and Ren, 1998) encoding either GFP alone, or Spi2A in the forward (sense) or reverse (antisense) orientation and stable clones generated, as described previously (Liu et al., 2003). Cells were treated with TNF-α (R&D) and after 16 h the number of live GFP-positive adherent cells were counted by flow cytometry (Liu et al., 2003). Live cells were defined as those that excluded propidium iodide (PI-negative) and had the appropriate size, as defined by forward and side light scatter characteristics. Caspase activity was inhibited by pre-treatment of cells or extracts for 1 h with Z-VAD.fmk (ICN Biomedicals Inc; 50 μM). […] In anti-sense experiments the level of Spi2A mRNA was quantitated by real-time PCR using primers and probes specific for Spi2A (Inglis et al., 1991) and cyclofilin A control mRNA (Medhurst et al., 2000), 4 h after treatment with Z-VAD.fmk ([…]) and TNF-α (10 ng/ml), as described previously (Liu et al., 2003).

[2] = system: caspase activity; experiment: Caspase activity enzyme assay, NIH3T3 cells; format: cell-based; conditions: Z-VAD.fmk 50 μM, 1 h pre-treatment; verified by enzyme assay
Experimental: as §1

[3] = system: RelA^−/− MEFs; experiment: Survival assay, TNF-α and CHX, RelA^−/− MEFs; format: cell-based, mouse; conditions: CHX 0.1 μg/ml
[4] = target: T1, cathepsin B (Mus musculus, UniProt P10605); experiment: Cathepsin B activity in crude cytoplasmic extracts, RelA^−/− MEFs; format: cell-based
T1 construct: endogenous in cells; host or cells: RelA-/- or RelA+/+ MEFs (retrovirally transduced with GFP, RelA, Spi2A or antisense Spi2A)
T1 sequence (P10605 80-333): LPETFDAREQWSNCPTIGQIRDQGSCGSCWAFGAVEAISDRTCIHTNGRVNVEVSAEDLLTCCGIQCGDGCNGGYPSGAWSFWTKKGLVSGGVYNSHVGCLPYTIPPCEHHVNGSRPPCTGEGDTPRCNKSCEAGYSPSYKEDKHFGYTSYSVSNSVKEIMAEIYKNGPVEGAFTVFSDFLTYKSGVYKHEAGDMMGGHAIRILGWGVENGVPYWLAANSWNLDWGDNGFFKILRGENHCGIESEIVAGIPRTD
Experimental: Survival Assays. Although RelA^−/− MEFs are markedly more sensitive to TNF-α compared to RelA^+/+ MEFs, low levels of CHX (0.1 μg/ml) were used in the survival assays. This was to suppress any protective activity of constitutively active non-RelA NF-κB molecules that are present in RelA^−/− MEFs (FIG. 4). Thus, RelA^−/− MEFs were treated with CHX and TNF-α (R&D) and the number of live GFP-positive adherent cells was counted by flow cytometry after 16 h, if not indicated otherwise. Live cells were defined as those that excluded propidium iodide (PI-negative) and had the appropriate size, as defined by forward and side scatter characteristics (Coligan et al., 1995). For RelA^+/+ MEFs, TNF-α-cytotoxicity was determined after 16 h with CHX (10 μg/ml), if not indicated otherwise. Cathepsin B activity was inhibited by a 1 h pre-treatment of MEFs with CA-074 Me (30 μM) (Peptide Institute). […] RelA^−/− MEFs were treated with (10-50 μM) sphingosine (Calbiochem) and the number of live GFP-positive adherent cells was counted by flow cytometry after 2 h.
Death effector assays. Death effector pathways were induced in […] MEFs by treatment TNF-α (0.2 ng/ml) and CHX (0.1 μg/ml). […] Protein concentration was determined by Lowry assay (DC-protein assay kit, Biorad). […]
Colorimetric assays for capases were performed in reaction buffer (50 mM HEPES, pH 7.4, 100 mM NaCl, 10 mM DTT, 1 mM EDTA, 10% glycerol, 0.1% CHAPS) at 37° C. on crude cytoplasmic extracts using p-Nitoaniline (pNA)-labeled substrates (Calbiochem) specific for caspases 3 and 7 (Ac-DEVD-pNA), caspase 8 (Ac-IETD-pNA), caspase 9 (Ac-LEHD-pNA), each at 0.2 mM. Specific activity was determined by subtracting the apparent activity detected after 1 h pre-incubation of extract with the pan-caspase inhibitor Z-VAD.fmk at 50 μM (ICN Biomedicals Inc), then normalizing for the amount of protein. […] Specific activity was determined by subtracting the apparent activity detected after 30 min pre-incubation of extract at 37° C. with the cathespin B inhibitor CA-074 Me at 30 μM (Peptide Institute) then normalizing for the amount of protein.

COC(=O)C[C@H](NC(=O)[C@H](C)NC(=O)[C@@H](NC(=O)OCc1ccccc1)C(C)C)C(=O)CF [Z-VAD.fmk, reference compound] (Cbz-Val-Ala-Asp(OMe)-CH2F)
Sensitization to PCD by TNF-α (percentage survival) [1]: sensitized
Inhibition of caspase activity [2]: complete inhibition

RelA: human RelA (p65) cDNA expressed from MIGR1 retrovirus in RelA^−/− MEFs [reference compound]
Percentage survival after TNF-α and CHX, retrovirally transduced cells vs GFP ([3]; 16 h, FIG. 1B, 2B): complete protection
Cytosolic cathepsin B activity after TNF-α, retrovirally transduced cells ([4]; TNF-α 0.2 ng/ml, CHX 0.1 μg/ml, FIG. 1C, 7A): extinguished

CCCNC(=O)[C@H]1O[C@@H]1C(=O)N[C@H](C(=O)N1CCC[C@H]1C(=O)OC)[C@@H](C)CC [CA-074 Me, reference compound]
Protection from TNF-α-induced death (percentage survival) ([3]; CA-074 Me 30 μM, TNF-α 0.5 ng/ml, FIG. 1A): protected
Inhibition of cathepsin B activity in MEFs ([4]; CA-074 Me 30 μM, 1 h pre-treatment, verified by enzyme assay): complete inhibition
